Reference: ChEMBL document CHEMBL5038624, “Construction and activity evaluation of novel dual-target (SE/CYP51) anti-fungal agents containing amide naphthyl structure” (Eur J Med Chem, 2022)
≈ marks a conversion by molar mass, not a printed value. Calls of active or inactive are those of the source. No cut-off for these calls is given here.

Legend:
Candida albicans [1] = assay: Antifungal activity against Candida albicans ATCC SC5314 assessed as decrease in fungal cell density by fluorescence microscopy; assay type: functional, organism-based
Pichia kudriavzevii = assay: Antifungal activity against Candida krusei ATCC 6258 assessed as reduction in fungal growth incubated for 72 hrs by CLSI protocol based broth microdilution method; assay type: functional
Candida albicans [2] = assay: Inhibition of SE/CYP51 in Candida albicans ATCC SC5314 assessed as lanosterol level incubated for 48 hrs by LC/MS analysis; design: scale not given: the % may be the effect or the level left
Aspergillus fumigatus = assay: Antifungal activity against Aspergillus fumigatus KM8001 assessed as reduction in fungal growth incubated for 72 hrs by CLSI protocol based broth microdilution method; assay type: functional
[3] = Toxicity in mouse infected with Candida albicans ATCC SC5314 assessed as effect on lung at 4 mg/kg,ip administrated every 2 days for 14 days by hematoxylin-eosin staining based assay; assay type: organism-based; conditions: in vivo, 336 h, time 14 day
Candida albicans [4] = assay: Antifungal activity against Candida albicans ATCC SC5314 infected in mouse assessed as decrease in fungal infection at 4 mg/kg,ip administrated every 2 days for 14 days; assay type: functional, organism-based; conditions: time 14.0 day
Candida albicans [5] = assay: Antifungal activity against Candida albicans ATCC SC5314 assessed as disappearance of fungal cell boundaries incubated for 96 hrs by TEM analysis; assay type: functional, organism-based
Candida albicans [6] = assay: Antifungal activity against Candida albicans strain 901 assessed as reduction in fungal growth incubated for 72 hrs by CLSI protocol based broth microdilution method; assay type: functional
[7] = Toxicity in mouse assessed as effect on aspartate transaminase level; conditions: in vivo
Candida tropicalis = assay: Antifungal activity against Candida tropicalis ATCC 1369 assessed as reduction in fungal growth incubated for 72 hrs by CLSI protocol based broth microdilution method; assay type: functional
Candida albicans [8] = assay: Induction of apoptosis against Candida albicans ATCC SC5314 assessed as necrotic cells measured after 48 hrs by Annexin V-FITC/propidium iodide staining based flow cytometry (reference value: 18.22 %); assay type: functional
Candida albicans [9] = assay: Antifungal activity against Candida albicans ATCC SC5314 infected in mouse assessed as reduction on endothelial fungal infection at 4 mg/kg,ip administrated every 2 days for 14 days by hematoxylin-eosin staining based assay; assay type: functional, organism-based; conditions: time 14.0 day
Candida albicans [10] = assay: Induction of apoptosis against Candida albicans ATCC SC5314 assessed as late apoptotic cells measured after 48 hrs by Annexin V-FITC/propidium iodide staining based flow cytometry (reference value: 0.71 %); assay type: functional
[11] = Toxicity in mouse assessed as effect on alanine transaminase level; conditions: in vivo
[12] = Toxicity in mouse infected with Candida albicans ATCC SC5314 assessed as effect on kidney at 4 mg/kg,ip administrated every 2 days for 14 days by hematoxylin-eosin staining based assay; assay type: organism-based; conditions: in vivo, 336 h, time 14 day
[13] = Toxicity in mouse infected with Candida albicans ATCC SC5314 assessed as effect on heart at 4 mg/kg,ip administrated every 2 days for 14 days by hematoxylin-eosin staining based assay; assay type: organism-based; conditions: in vivo, 336 h, time 14 day
[14] = Inhibition of SE in Candida albicans ATCC SC5314 measured after 30 mins by HPLC analysis
Candida albicans [15] = assay: Inhibition of SE/CYP51 in Candida albicans ATCC SC5314 assessed as ergosterol level incubated for 48 hrs by LC/MS analysis; design: scale not given: the % may be the effect or the level left
Candida albicans [16] = assay: Inhibition of SE/CYP51 in Candida albicans ATCC SC5314 assessed as eburicol level incubated for 48 hrs by LC/MS analysis; design: scale not given: the % may be the effect or the level left
[17] = Toxicity in mouse infected with Candida albicans ATCC SC5314 assessed as effect on liver at 4 mg/kg,ip administrated every 2 days for 14 days by hematoxylin-eosin staining based assay; assay type: organism-based; conditions: in vivo, 336 h, time 14 day
Candida albicans [18] = assay: Inhibition of SE/CYP51 in Candida albicans ATCC SC5314 assessed as squalene level incubated for 48 hrs by LC/MS analysis; design: scale not given: the % may be the effect or the level left
Candida albicans [19] = assay: Antifungal activity against Candida albicans strain 632 assessed as reduction in fungal growth incubated for 72 hrs by CLSI protocol based broth microdilution method; assay type: functional
Candida albicans [20] = assay: Antifungal activity against Candida albicans strain 17 assessed as reduction in fungal growth incubated for 72 hrs by CLSI protocol based broth microdilution method; assay type: functional
Candida albicans [21] = assay: Antifungal activity against Candida albicans strain CaR assessed as reduction in fungal growth incubated for 72 hrs by CLSI protocol based broth microdilution method; assay type: functional
[22] = Toxicity in mouse infected with Candida albicans ATCC SC5314 assessed as effect on spleen at 4 mg/kg,ip administrated every 2 days for 14 days by hematoxylin-eosin staining based assay; assay type: organism-based; conditions: in vivo, 336 h, time 14 day
Candida albicans [23] = assay: Antifungal activity against Candida albicans strain 904 assessed as reduction in fungal growth incubated for 72 hrs by CLSI protocol based broth microdilution method; assay type: functional
Mus musculus = assay: Antifungal activity against Candida albicans ATCC SC5314 infected in mouse assessed as increase in body weight at 4 mg/kg,ip administrated every 2 days for 14 days; assay type: functional, organism-based; conditions: time 14.0 day
Candida albicans [24] = assay: Antifungal activity against Candida albicans ATCC SC5314 assessed as irregular cell structure incubated for 48 hrs by TEM analysis; assay type: functional, organism-based
[25] = Toxicity in mouse assessed as effect on blood urea nitrogen level; conditions: in vivo
[26] = biological target: Lanosterol 14-alpha demethylase (Candida albicans (strain SC5314 / ATCC MYA-2876) (Yeast), UniProt P10613); assay: Inhibition of CYP51 in Candida albicans ATCC SC5314 measured after 30 mins by HPLC analysis
Lanosterol 14-alpha demethylase, sequence (P10613 whole entry): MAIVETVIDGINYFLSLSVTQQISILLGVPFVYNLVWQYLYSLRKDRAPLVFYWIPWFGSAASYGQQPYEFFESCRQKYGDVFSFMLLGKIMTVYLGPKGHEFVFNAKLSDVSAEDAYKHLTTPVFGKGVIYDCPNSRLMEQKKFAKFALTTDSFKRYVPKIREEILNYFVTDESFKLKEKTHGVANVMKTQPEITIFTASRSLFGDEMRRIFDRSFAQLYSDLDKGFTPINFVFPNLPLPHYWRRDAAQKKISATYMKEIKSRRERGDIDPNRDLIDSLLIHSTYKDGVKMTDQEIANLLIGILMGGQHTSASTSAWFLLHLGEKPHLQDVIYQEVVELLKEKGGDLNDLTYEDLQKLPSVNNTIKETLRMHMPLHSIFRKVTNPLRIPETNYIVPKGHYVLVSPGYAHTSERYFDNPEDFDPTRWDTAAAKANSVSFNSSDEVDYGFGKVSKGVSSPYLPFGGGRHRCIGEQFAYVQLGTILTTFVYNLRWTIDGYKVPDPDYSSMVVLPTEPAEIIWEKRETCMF

Candida albicans [27] = assay: Induction of apoptosis against Candida albicans ATCC SC5314 assessed as mild apoptotic cells measured after 48 hrs by Annexin V-FITC/propidium iodide staining based flow cytometry (Rvb =0.29 %); assay type: functional
Candida albicans [28] = assay: Antifungal activity against Candida albicans SC5314 assessed as reduction in fungal growth incubated for 72 hrs by CLSI protocol based broth microdilution method; assay type: functional
Candida albicans [29] = assay: Antifungal activity against Candida albicans ATCC SC5314 assessed as irregular cell structure incubated for 72 hrs by TEM analysis; assay type: functional, organism-based
Nakaseomyces glabratus = assay: Antifungal activity against Candida glabrata ATCC 0001 assessed as reduction in fungal growth incubated for 72 hrs by CLSI protocol based broth microdilution method; assay type: functional
Candida albicans [30] = assay: Inhibition of SE/CYP51 in Candida albicans ATCC SC5314 assessed as unknown sterol level incubated for 48 hrs by LC/MS analysis; design: scale not given: the % may be the effect or the level left
Candida albicans [31] = assay: Induction of apoptosis against Candida albicans ATCC SC5314 assessed as viable cells measured after 48 hrs by Annexin V-FITC/propidium iodide staining based flow cytometry (reference value: 80.78 %); assay type: functional

MIC50 (Pichia kudriavzevii): 0.25 µg/mL (≈ 0.679 µM)
Activity (Candida albicans [2]): 11.4%
MIC50 (Aspergillus fumigatus): 2 µg/mL (≈ 5.43 µM)
MIC50 (Candida albicans [6]): 1 µg/mL (≈ 2.71 µM)
MIC50 (Candida tropicalis): 0.125 µg/mL (≈ 0.339 µM)
IC50 [14]: 930 nM
Activity (Candida albicans [15]): 19.2%
Activity (Candida albicans [16]): 32.9%
Activity (Candida albicans [18]): 29.5%
MIC50 (Candida albicans [19]): 2 µg/mL (≈ 5.43 µM)
MIC50 (Candida albicans [20]): 2 µg/mL (≈ 5.43 µM)
MIC50 (Candida albicans [21]): 2 µg/mL (≈ 5.43 µM)
MIC50 (Candida albicans [23]): 2 µg/mL (≈ 5.43 µM)
IC50 [26]: 209 nM
MIC50 (Candida albicans [28]): 0.125 µg/mL (≈ 0.339 µM)
MIC50 (Nakaseomyces glabratus): 0.25 µg/mL (≈ 0.679 µM)
Activity (Candida albicans [30]): 7%
SMILES: O=C(/C=C/c1cccc2ccccc12)NC(Cn1cncn1)c1ccccc1 (stereo unspecified)
Activity (Candida albicans [1]): Active
Activity [3]: Non-Toxic
Activity (Candida albicans [4]): Active
Activity (Candida albicans [5]): Active
Activity [7]: 118 IU/L
Activity (Candida albicans [8]): 46.23%
Activity (Candida albicans [9]): Active
Activity (Candida albicans [10]): 1.24%
Activity [11]: 101.6 IU/L
Activity [12]: Non-Toxic
Activity [13]: Non-Toxic
Activity [17]: Non-Toxic
Activity [22]: Non-Toxic
Activity (Mus musculus): Active
Activity (Candida albicans [24]): Active
Activity [25]: 6.1 mmol/L
Activity (Candida albicans [27]): 0.26%
Activity (Candida albicans [29]): Active
Activity (Candida albicans [31]): 52.27%
